Data taken from paper PMC9263924, “Mycobacterium tuberculosis Methyltransferase Rv1515c Can Suppress Host Defense Mechanisms by Modulating Immune Functions Utilizing a Multipronged Mechanism” (Frontiers in Molecular Biosciences, 2022).

Target: Rv1515c (Mycobacterium tuberculosis, UniProt P71794)
Sequence (P71794 entry or part of it): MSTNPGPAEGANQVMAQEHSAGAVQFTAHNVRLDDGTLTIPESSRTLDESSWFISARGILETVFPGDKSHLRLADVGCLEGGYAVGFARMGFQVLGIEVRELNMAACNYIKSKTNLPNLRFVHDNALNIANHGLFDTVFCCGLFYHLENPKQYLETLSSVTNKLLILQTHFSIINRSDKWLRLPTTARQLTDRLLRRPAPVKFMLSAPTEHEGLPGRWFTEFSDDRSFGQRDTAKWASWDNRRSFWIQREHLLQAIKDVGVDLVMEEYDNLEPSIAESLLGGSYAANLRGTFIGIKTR

## C[S+](CC[C@H](N)C(=O)O)C[C@H]1O[C@@H](n2cnc3c(N)ncnc32)[C@H](O)[C@@H]1O (stereo partly shown) [S-adenosylmethionine]
  EpiQuik DNA MTase kit, 5-methylcytosine antibody detection, absorbance 450 nm: ability of the Rv1515c to transfer a methyl group from Adomet to cytosine
